{"source": "patent US20220054513A1", "about": "“COMBINATION COMPOSITIONS COMPRISING A BETA-LACTAMASE INHIBITOR” (VenatoRx Pharmaceuticals, Inc., priority 2018, published 2022)", "tested_on": "cefepime-resistant clinical isolates of Enterobacteriaceae and P. aeruginosa", "experiment": "neutropenic murine thigh infection model, human simulated regimens", "format": "in vivo, mice", "conditions": "human simulated regimen (HSR) of 2 g cefepime alone q8 h; at 24 h; 30 strains", "text": "The 2 g:0.5 g dose of cefepime:Compound 1 which is planned for clinical efficacy studies is supported by neutropenic murine thigh infection model studies using 30 cefepime-resistant clinical isolates of Enterobacteriaceae and P. aeruginosa."}
{"molecule": "CO/N=C(\\C(=O)N[C@@H]1C(=O)N2C(C(=O)[O-])=C(C[N+]3(C)CCCC3)CS[C@H]12)c1csc(N)n1", "note": "[FEP, cefepime]", "values": [{"measurement": "growth on average compared to the T=0 control", "value": "approximately 2.7 log10 CFU/thigh"}]}
